Laboratory results published in publication PMC3084506 (Archives of Drug Information, 2011).
Entries after “also recorded” stand apart in the source; their conditions may differ. Like-named read-outs stand apart in the source and are kept apart here. Each block holds one compound with its values, some of them ahead of it. Square brackets hold non-standard residues; d marks the D form. Peptide text beside a SMILES is read from it. Sar = CNCC(=O)O

Assays:
MDCKI cells = experiment: Effect of inhibitors on ciprofloxacin bidirectional transport in MDCKI cells; settings: 25 µM ciprofloxacin, inhibitor concentrations as in Figure 4 legend
[1] = cited from earlier work
P-gp (L-MDR1 cells) [2] = biological target: T1, P-gp (L-MDR1 cells) (Homo sapiens, UniProt P08183); experiment: Bidirectional transport study in L-MDR1 cells; assay type: in vitro ADME; settings: LLC-PK1
[3] = Bidirectional transport study in MDCKI cells; assay type: in vitro ADME, canine; settings: dog, MDCK
in vitro = settings: human, MDCK-MDR1
[4] = Bidirectional transport study in LLC-PK1 cells; assay type: in vitro ADME; settings: pig
MRP1 (L-MRP1 cells) = MRP1 (L-MRP1 cells) (Homo sapiens, UniProt P33527); experiment: Bidirectional transport study in L-MRP1 cells; assay type: in vitro ADME; settings: LLC-PK1
[5] = humans; cited from earlier work
OAT3 = settings: cited from earlier work
P-gp (MDCKII-MDR1 cells) = P-gp (MDCKII-MDR1 cells) (Homo sapiens, UniProt P08183); settings: MDCKII vs MDCKII-MDR1; cited from earlier work
P-gp (MDCKI-MDR1 cells) [6] = settings: MDCKI-MDR1 and L-MDR1 cells; cited from earlier work
P-gp (L-MDR1 cells) [7] = biological target: T1, P-gp (L-MDR1 cells); settings: LLC-PK1 vs L-MDR1, cited from earlier work
P-gp (MDCKI-MDR1 cells) [8] = settings: studies done in our lab

T1 sequence (P08183 whole entry): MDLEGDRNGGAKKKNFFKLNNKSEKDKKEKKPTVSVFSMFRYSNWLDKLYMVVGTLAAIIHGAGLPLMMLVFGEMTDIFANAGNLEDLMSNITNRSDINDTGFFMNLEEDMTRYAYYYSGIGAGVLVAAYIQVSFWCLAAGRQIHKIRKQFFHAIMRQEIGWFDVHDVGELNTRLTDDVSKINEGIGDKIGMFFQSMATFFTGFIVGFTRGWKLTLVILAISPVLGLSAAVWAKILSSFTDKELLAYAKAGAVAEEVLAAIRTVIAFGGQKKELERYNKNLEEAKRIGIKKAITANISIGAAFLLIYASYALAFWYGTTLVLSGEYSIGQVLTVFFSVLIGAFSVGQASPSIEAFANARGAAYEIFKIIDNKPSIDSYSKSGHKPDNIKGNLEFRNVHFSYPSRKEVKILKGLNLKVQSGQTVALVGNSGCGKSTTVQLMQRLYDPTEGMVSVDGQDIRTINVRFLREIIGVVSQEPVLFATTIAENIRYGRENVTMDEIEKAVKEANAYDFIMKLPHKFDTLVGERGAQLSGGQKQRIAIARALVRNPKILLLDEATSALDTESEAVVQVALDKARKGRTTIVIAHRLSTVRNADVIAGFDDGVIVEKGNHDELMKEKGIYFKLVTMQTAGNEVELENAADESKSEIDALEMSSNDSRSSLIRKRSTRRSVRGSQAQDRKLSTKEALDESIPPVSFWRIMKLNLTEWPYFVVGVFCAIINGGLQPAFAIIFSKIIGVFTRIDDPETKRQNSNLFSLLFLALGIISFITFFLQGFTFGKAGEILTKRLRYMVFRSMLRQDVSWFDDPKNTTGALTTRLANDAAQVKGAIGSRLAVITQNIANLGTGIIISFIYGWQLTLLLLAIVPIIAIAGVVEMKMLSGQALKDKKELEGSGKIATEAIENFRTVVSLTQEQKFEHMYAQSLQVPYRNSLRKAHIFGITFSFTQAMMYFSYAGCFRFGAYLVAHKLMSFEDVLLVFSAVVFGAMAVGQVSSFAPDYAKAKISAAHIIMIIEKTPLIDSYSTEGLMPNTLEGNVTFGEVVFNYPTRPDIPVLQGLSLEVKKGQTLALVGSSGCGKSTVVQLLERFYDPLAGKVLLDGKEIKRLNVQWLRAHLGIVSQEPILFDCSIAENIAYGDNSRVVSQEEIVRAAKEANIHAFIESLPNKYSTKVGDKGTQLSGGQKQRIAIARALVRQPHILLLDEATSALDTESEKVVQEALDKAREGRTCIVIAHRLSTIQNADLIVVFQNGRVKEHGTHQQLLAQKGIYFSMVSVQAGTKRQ
P-gp (MDCKII-MDR1 cells), sequence (P08183 whole entry): as above
MRP1 (L-MRP1 cells), sequence (P33527 whole entry): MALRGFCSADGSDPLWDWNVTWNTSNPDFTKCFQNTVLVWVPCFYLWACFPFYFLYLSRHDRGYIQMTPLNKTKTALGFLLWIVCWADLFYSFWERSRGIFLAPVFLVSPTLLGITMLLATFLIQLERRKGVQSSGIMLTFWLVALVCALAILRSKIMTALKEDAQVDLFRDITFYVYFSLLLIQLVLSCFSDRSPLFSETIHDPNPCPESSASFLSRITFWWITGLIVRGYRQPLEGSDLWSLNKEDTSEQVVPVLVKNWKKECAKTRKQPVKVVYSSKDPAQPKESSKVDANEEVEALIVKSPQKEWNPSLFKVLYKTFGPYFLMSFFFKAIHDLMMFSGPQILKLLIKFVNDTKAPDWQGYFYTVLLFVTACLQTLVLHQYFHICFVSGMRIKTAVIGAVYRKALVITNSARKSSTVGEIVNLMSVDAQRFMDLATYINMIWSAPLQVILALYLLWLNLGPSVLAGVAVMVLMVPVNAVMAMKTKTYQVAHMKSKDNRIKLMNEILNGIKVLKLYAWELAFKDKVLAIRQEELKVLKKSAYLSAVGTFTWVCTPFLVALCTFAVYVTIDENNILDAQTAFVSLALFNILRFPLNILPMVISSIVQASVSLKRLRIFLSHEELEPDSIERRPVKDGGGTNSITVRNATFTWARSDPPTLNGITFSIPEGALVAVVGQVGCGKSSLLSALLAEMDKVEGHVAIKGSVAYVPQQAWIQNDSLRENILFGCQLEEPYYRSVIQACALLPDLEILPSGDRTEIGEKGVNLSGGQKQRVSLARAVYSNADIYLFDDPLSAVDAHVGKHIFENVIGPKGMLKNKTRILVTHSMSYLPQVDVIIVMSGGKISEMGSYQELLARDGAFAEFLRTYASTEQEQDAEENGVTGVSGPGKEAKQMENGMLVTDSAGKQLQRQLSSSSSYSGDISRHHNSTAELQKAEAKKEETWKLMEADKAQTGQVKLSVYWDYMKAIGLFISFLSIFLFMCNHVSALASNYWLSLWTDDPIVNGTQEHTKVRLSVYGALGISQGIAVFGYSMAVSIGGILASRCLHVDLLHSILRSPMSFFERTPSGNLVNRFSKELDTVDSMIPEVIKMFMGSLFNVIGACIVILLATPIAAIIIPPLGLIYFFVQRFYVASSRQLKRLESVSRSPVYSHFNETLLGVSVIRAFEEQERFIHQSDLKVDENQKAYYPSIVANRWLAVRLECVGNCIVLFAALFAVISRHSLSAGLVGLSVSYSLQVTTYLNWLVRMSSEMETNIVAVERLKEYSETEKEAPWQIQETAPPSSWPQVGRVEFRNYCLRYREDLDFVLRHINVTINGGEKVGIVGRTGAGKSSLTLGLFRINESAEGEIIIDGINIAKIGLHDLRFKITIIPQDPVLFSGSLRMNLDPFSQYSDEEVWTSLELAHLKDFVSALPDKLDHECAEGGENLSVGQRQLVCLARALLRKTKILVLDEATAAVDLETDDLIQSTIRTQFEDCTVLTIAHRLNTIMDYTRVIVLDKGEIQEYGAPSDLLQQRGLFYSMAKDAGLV

SMILES: COc1cc2c(cc1OC)CN(CCc1ccc(NC(=O)c3cccc4c(=O)c5cccc(OC)c5[nH]c34)cc1)CC2 [GG918]
effect on ciprofloxacin transport in MDCKI cells (in words) (MDCKI cells): no significant effects

SMILES: O=C(O)c1cn(C2CC2)c2cc(N3CCNCC3)c(F)cc2c1=O [ciprofloxacin]
eliminated via intestinal secretion [1]: at least 10%

SMILES: CN(CC(=O)O)C(=O)CN [glycosarcosine] (H-Gly-[Sar]-OH)
effect on ciprofloxacin transport in MDCKI cells (in words) (MDCKI cells): no significant effects; also recorded: no effect

Papp at 1 h (P-gp (L-MDR1 cells) [2]): ~1.2 ×10⁻⁶ cm/s
Papp at 1 h [3]: ~0.5 ×10⁻⁶ cm/s
Papp at 1 h (in vitro): ~0.5 ×10⁻⁶ cm/s
Papp at 1 h [4]: ~1.3 ×10⁻⁶ cm/s
Papp at 1 h (MRP1 (L-MRP1 cells)): ~3.5 ×10⁻⁶ cm/s
SMILES: OC[C@@H](O)[C@@H](O)[C@H](O)[C@H](O)CO [mannitol]

SMILES: CCCN(CCC)S(=O)(=O)c1ccc(C(=O)O)cc1 [probenecid]
effect on ciprofloxacin renal secretion [5]: competitively inhibit
interaction with OAT3 (OAT3): inhibitor of OAT3

SMILES: C=C[C@H]1C[N@@]2CC[C@H]1C[C@@H]2[C@@H](O)c1ccnc2ccc(OC)cc12 [quinidine]
effect on ciprofloxacin transport in MDCKI cells (in words) (MDCKI cells): no significant effects

SMILES: COc1cc(Cc2cnc(N)nc2N)cc(OC)c1OC [trimethoprim]
difference in transport between MDCKII and MDCKII-MDR1 cells (P-gp (MDCKII-MDR1 cells)): no difference
P-gp substrate status from transport studies (P-gp (MDCKI-MDR1 cells) [6]): substrate of P-gp

P-gp substrate status from transport studies (P-gp (MDCKI-MDR1 cells) [8]): substrate of P-gp
SMILES: CC[C@]1(O)C[C@@H]2CN(CCc3c([nH]c4ccccc34)[C@@](C(=O)OC)(c3cc4c(cc3OC)N(C)[C@H]3[C@@](O)(C(=O)OC)[C@H](OC(C)=O)[C@]5(CC)C=CCN6CC[C@]43[C@@H]65)C2)C1 [vinblastine]
effect on ciprofloxacin transport in MDCKI cells (in words) (MDCKI cells): no significant effects
difference in transport between LLC-PK1 and L-MDR1 cells (P-gp (L-MDR1 cells) [7]): no difference
difference in transport between LLC-PK1 and L-MDR1 cells (P-gp (L-MDR1 cells) [7]; listed as Vinblastine): did not show differences
